Experiments:
lambsquarters = assay: Test C pre-/postemergence test; assay type: in vivo, Chenopodium album; details: for Plant response rating, Lambsquarters: scale 0 to 100, 0 no effect, 100 complete control
In short: (§1)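 Compounds in a non-phytotoxic solvent with surfactant applied preemergence to seeded pots and, at the same time, postemergence to plants 2–18 cm tall (1- to 4-leaf stage). Paddy tests: pots flooded to 3 cm, compound applied into the water, depth held throughout.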

bermudagrass = assay: Test C pre-/postemergence test; assay type: in vivo, Cynodon dactylon
In short: as §1

downy brome = assay: Test C pre-/postemergence test; assay type: in vivo, Bromus tectorum
In short: as §1

giant foxtail [1] = assay: Test A pre-/postemergence greenhouse test; assay type: in vivo, Setaria faberi; details: for Plant response rating, Foxtail, Giant: 0 to 100 scale where 0 is no effect and 100 is complete control; for Foxtail, Giant plant response rating: 0 to 100 scale
In short: (§2)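 Herbicidal effect is a visual injury score given about ten days post-treatment by comparison with untreated controls. Preemergence plots received a directed spray onto sown loam–sand soil; postemergence plants, at the one- to two-leaf stage and 2–10 cm tall, were sprayed at the same time.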

johnsongrass = assay: Test C pre-/postemergence test; assay type: in vivo, Sorghum halepense
In short: as §1

pigweed = assay: Test C pre-/postemergence test; assay type: in vivo, Amaranthus retroflexus; details: for Pigweed plant response rating: preemergence, scale 0 (no effect) to 100 (complete control); for Plant response rating (0 to 100), Pigweed / Plant response rating, Pigweed: Postemergence; for Plant response rating, Pigweed: scale 0 to 100, 0 no effect, 100 complete control
In short: as §1

velvetleaf = assay: Test A pre-/postemergence greenhouse test; assay type: in vivo, Abutilon theophrasti; details: for Plant response rating, Velvetleaf: 0 to 100 scale where 0 is no effect and 100 is complete control; for Velvetleaf plant response rating: 0 to 100 scale
In short: as §2

giant foxtail [2] = assay: Test C pre-/postemergence test; assay type: in vivo, Setaria faberii
In short: as §1

wheat = assay: Test A pre-/postemergence greenhouse test; assay type: in vivo, Triticum aestivum; details: for Plant response rating, Wheat: 0 to 100 scale where 0 is no effect and 100 is complete control; for Wheat plant response rating: 0 to 100 scale
In short: as §2

morningglory = assay: Test C pre-/postemergence test; assay type: in vivo, Ipomoea coccinea
In short: as §1

rice = assay: Test C flooded paddy test; assay type: in vivo, Oryza sativa; details: Flood
In short: (§3)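 Test compounds are applied straight into paddy water held 3 cm above the soil surface, with that flood maintained for the whole test. After 13 to 15 days in the greenhouse, each species is scored visually relative to controls.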

corn = assay: Test A pre-/postemergence greenhouse test; assay type: in vivo, Zea mays; details: for Plant response rating, Corn: 0 to 100 scale where 0 is no effect and 100 is complete control; for Corn plant response rating: 0 to 100 scale
In short: as §2

Surinam grass = assay: Test C pre-/postemergence test; assay type: in vivo, Brachiaria decumbens
In short: as §1

barnyardgrass = assay: Test C flooded paddy test; assay type: in vivo, Echinochloa crus-galli; details: Flood
In short: as §3

crabgrass = assay: Test C pre-/postemergence test; assay type: in vivo, Digitaria sanguinalis
In short: as §1

soybean = assay: Test C pre-/postemergence test; assay type: in vivo, Glycine max
In short: as §1

[3] = 62 g ai/ha, Preemergence, scale 0 to 100
[4] = 125 g ai/ha, preemergence, scale 0 (no effect) to 100 (complete control)
[5] = preemergence, 250 g ai/ha, scale 0 (no effect) to 100 (complete control)
[6] = Postemergence, 125 g ai/ha, scale 0 to 100, 0 no effect, 100 complete control
[7] = Postemergence, 250 g ai/ha, scale 0 to 100, 0 no effect, 100 complete control
[8] = Preemergence, 31 g ai/ha, scale 0 to 100 (0 no effect, 100 complete control)
[9] = Postemergence, 500 g ai/ha, 0 is no effect, 100 is complete control
[10] = Preemergence, 125 g ai/ha, 0 no effect, 100 complete control
[11] = 62 g ai/ha, scale 0 to 100 (0 no effect, 100 complete control)
[12] = 250 g ai/ha, scale 0 to 100, 0 no effect, 100 complete control, 13 to 15 days

## Cn1nc(C(F)(F)C(F)(F)F)c(C[S+]([O-])c2cccc[n+]2[O-])c1OCC(F)(F)F (stereo not shown) [Compound 79]
lambsquarters; [3]
  Lambsquarters plant response rating: 90
lambsquarters; [4]
  Lambsquarters plant response rating: 100
lambsquarters; Postemergence, 62 g ai/ha
  Plant response rating (0 to 100), Lambsquarters: 0
lambsquarters; Postemergence, 125 g ai/ha
  Plant response rating, Lambsquarters: 0
lambsquarters; Postemergence, 250 g ai/ha
  Plant response rating, Lambsquarters: 70
lambsquarters; [5]
  Lambsquarters plant response rating: 100
bermudagrass; 62 g ai/ha, Preemergence, scale 0 to 100 (0 no effect, 100 complete control)
  Bermudagrass plant response rating: 100
bermudagrass; [4]
  Bermudagrass plant response rating: 100
bermudagrass; Postemergence, 31 g ai/ha
  Plant response rating (0 to 100), Bermudagrass: 0
bermudagrass; Postemergence, 62 g ai/ha
  Plant response rating (0 to 100), Bermudagrass: 0
bermudagrass; [6]
  Plant response rating, Bermudagrass: 45
bermudagrass; [7]
  Plant response rating, Bermudagrass: 50
bermudagrass; [8]
  Plant response rating, Bermudagrass: 95
bermudagrass; [5]
  Bermudagrass plant response rating: 100
Downy brome; [3]
  Bromegrass, Downy plant response rating: 50
Downy brome; [4]
  Bromegrass, Downy plant response rating: 100
Downy brome; Postemergence, 31 g ai/ha
  Plant response rating (0 to 100), Bromegrass, Downy: 0
Downy brome; Postemergence, 62 g ai/ha
  Plant response rating (0 to 100), Bromegrass, Downy: 0
Downy brome; [6]
  Plant response rating, Bromegrass, Downy: 20
Downy brome; [7]
  Plant response rating, Bromegrass, Downy: 60
Downy brome; [8]
  Plant response rating, Bromegrass, Downy: 50
Downy brome; [5]
  Bromegrass, Downy plant response rating: 100
Giant foxtail [1]; Postemergence, 125 g ai/ha
  Plant response rating, Foxtail, Giant: 80
Giant foxtail [1]; [9]
  Foxtail, Giant plant response rating: 90
Giant foxtail [1]; [10]
  Foxtail, Giant plant response rating: 90
Giant foxtail [1]; Preemergence, 500 g ai/ha
  Plant response rating, Foxtail, Giant: 100
johnsongrass; [3]
  Johnsongrass plant response rating: 95
johnsongrass; [4]
  Johnsongrass plant response rating: 95
johnsongrass; Postemergence, 31 g ai/ha
  Plant response rating (0 to 100), Johnsongrass: 0
johnsongrass; Postemergence, 62 g ai/ha
  Plant response rating (0 to 100), Johnsongrass: 20
johnsongrass; [6]
  Plant response rating, Johnsongrass: 25
johnsongrass; [7]
  Plant response rating, Johnsongrass: 50
johnsongrass; [8]
  Plant response rating, Johnsongrass: 80
johnsongrass; [5]
  Johnsongrass plant response rating: 95
pigweed; 125 g ai/ha
  Pigweed plant response rating: 70
  Plant response rating, Pigweed: 20
pigweed; 31 g ai/ha
  Plant response rating (0 to 100), Pigweed: 0
pigweed; 62 g ai/ha
  Plant response rating (0 to 100), Pigweed: 0
pigweed; 250 g ai/ha
  Plant response rating, Pigweed: 60
  Pigweed plant response rating: 100
velvetleaf; Postemergence, 125 g ai/ha
  Plant response rating, Velvetleaf: 60
velvetleaf; [9]
  Velvetleaf plant response rating: 80
velvetleaf; [10]
  Velvetleaf plant response rating: 80
velvetleaf; Preemergence, 500 g ai/ha
  Plant response rating, Velvetleaf: 100
Giant foxtail [2]; [3]
  Foxtail, Giant plant response rating: 70
Giant foxtail [2]; [4]
  Foxtail, Giant plant response rating: 80
Giant foxtail [2]; Postemergence, 31 g ai/ha
  Plant response rating (0 to 100), Foxtail, Giant: 0
Giant foxtail [2]; Postemergence, 62 g ai/ha
  Plant response rating (0 to 100), Foxtail, Giant: 0
Giant foxtail [2]; [6]
  Plant response rating, Foxtail, Giant: 50
Giant foxtail [2]; [7]
  Plant response rating, Foxtail, Giant: 70
Giant foxtail [2]; [8]
  Plant response rating, Foxtail, Giant: 70
Giant foxtail [2]; [5]
  Foxtail, Giant plant response rating: 100
wheat; Postemergence, 125 g ai/ha
  Plant response rating, Wheat: 50
wheat; [9]
  Wheat plant response rating: 70
wheat; [10]
  Wheat plant response rating: 80
wheat; Preemergence, 500 g ai/ha
  Plant response rating, Wheat: 100
morningglory; [3]
  Morningglory plant response rating: 100
morningglory; [4]
  Morningglory plant response rating: 100
morningglory; Postemergence, 31 g ai/ha
  Plant response rating (0 to 100), Morningglory: 0
morningglory; Postemergence, 62 g ai/ha
  Plant response rating (0 to 100), Morningglory: 0
morningglory; [6]
  Plant response rating, Morningglory: 0
morningglory; [7]
  Plant response rating, Morningglory: 0
morningglory; [8]
  Plant response rating, Morningglory: 60
morningglory; [5]
  Morningglory plant response rating: 100
rice; [11]
  Plant response rating, Rice: 70
rice; [12]
  Plant response rating, Rice: 80
corn; Postemergence, 125 g ai/ha
  Plant response rating, Corn: 20
corn; [9]
  Corn plant response rating: 80
corn; [10]
  Corn plant response rating: 0
corn; Preemergence, 500 g ai/ha
  Plant response rating, Corn: 80
Surinam grass; [3]
  Surinam Grass plant response rating: 85
Surinam grass; [4]
  Surinam Grass plant response rating: 98
Surinam grass; Postemergence, 31 g ai/ha
  Plant response rating (0 to 100), Surinam Grass: 0
Surinam grass; Postemergence, 62 g ai/ha
  Plant response rating (0 to 100), Surinam Grass: 0
Surinam grass; [6]
  Plant response rating, Surinam Grass: 30
Surinam grass; [7]
  Plant response rating, Surinam Grass: 85
Surinam grass; [8]
  Plant response rating, Surinam Grass: 60
Surinam grass; [5]
  Surinam Grass plant response rating: 100
barnyardgrass; [11]
  Plant response rating, Barnyardgrass: 0
barnyardgrass; [12]
  Plant response rating, Barnyardgrass: 70
crabgrass; [3]
  Crabgrass, Large plant response rating: 80
crabgrass; [4]
  Crabgrass, Large plant response rating: 100
crabgrass; Postemergence, 31 g ai/ha
  Plant response rating (0 to 100), Crabgrass, Large: 0
crabgrass; Postemergence, 62 g ai/ha
  Plant response rating (0 to 100), Crabgrass, Large: 0
crabgrass; [6]
  Plant response rating, Crabgrass, Large: 0
crabgrass; [7]
  Plant response rating, Crabgrass, Large: 50
crabgrass; [8]
  Plant response rating, Crabgrass, Large: 40
crabgrass; [5]
  Crabgrass, Large plant response rating: 100
soybean; [3]
  Soybean plant response rating: 60
soybean; Postemergence, 31 g ai/ha
  Plant response rating (0 to 100), Soybean: 50
soybean; Postemergence, 62 g ai/ha
  Plant response rating (0 to 100), Soybean: 55
soybean; [6]
  Plant response rating, Soybean: 60
soybean; [8]
  Plant response rating, Soybean: 60
soybean; [5]
  Soybean plant response rating: 80

Reference: patent publication US20100298141A1, “SUBSTITUTED PYRIDINE N-OXIDE HERBICIDES” (E. I. DU PONT DE NEMOURS AND COMPANY, priority 2007, published 2010)
